Reference: patent US8648103B2, “Nitrogen-containing aromatic heterocyclyl compound” (Daiichi Sankyo Company, Limited, priority 2008, dated 2014)

The compounds below were run on Human subcutaneous adipocytes (assay: Adipocyte lipolysis assay (suppression of isoproterenol-stimulated fatty acid release)). Settings: Homo sapiens, Adipocyte; test compound concentration giving 50% fatty acid concentration reduction percentage in culture supernatant; 1 μM isoproterenol, 5 hours incubation; reduction by 100 μM nicotinic acid set at 100%.
Type: cell-based
Text: The suppressive or promoting activity of a test compound on the lipolysis of neutral fat can be assayed according to an adipocyte lipolysis assay as a cell line assay. If a beta adrenoceptor is stimulated with isoproterenol or the like in adipocytes, lipolysis action in which neutral fat accumulated in the cells is decomposed into fatty acid and glycerol can be promoted, and as a result, the amount of such fatty acid or glycerol released out of the cells can be increased. When a test compound that suppresses lipolysis is added to adipocytes, lipolysis-promoting action by isoproterenol stimulation is reduced, and the concentration of fatty acid or glycerol in a medium is decreased. Accordingly, the suppressive activity of a test compound on lipolysis can be assayed by measuring the reduction percentage of the fatty acid concentration or glycerol concentration in a culture supernatant. Likewise, the promoting activity of a test compound on lipolysis can be assayed by measuring the increase percentage of the fatty acid concentration or glycerol concentration in a medium.
• (1) Human subcutaneous adipocytes disseminated onto a 96 well (Dainippon Sumitomo Pharma Co., Ltd.: F-SA-1096) • (2) Adipocyte Maintenance Medium (Dainippon Sumitomo Pharma Co., Ltd.: AM 1) • (3) Lipolysis assay buffer [137 mM NaCl, 5 mM KCl, 4.2 mM NaHCO3, 1.3 mM CaCl2, 0.5 mM KH2PO4, 0.5 mM MgCl2, 0.5 mM MgSO4, 5 mM Glucose, 20 mM Hepes (pH 7.4), 1% BSA, 1 μM Isoproterenol] • (4) NEFA-C Test Wako (Wako Pure Chemical Industries, Ltd.) Preparation of Screening Materials
In this operation, the actual concentration of the test compound in the buffer was 1/1000 of the above-described concentration.
The above-described subcutaneous adipocytes were cultured in 200 μL of an Adipocyte Maintenance Medium in each well for 7 days. During this culturing operation, the medium was exchanged with a fresh one every 3 days. The medium was exchanged by discarding 100 μL of the medium in each well and then adding 100 μL of a fresh Adipocyte Maintenance Medium to the well. Thereafter, the adipocytes were washed with a Lipolysis assay buffer. Subsequently, 50 μL of a Lipolysis assay buffer that contained the above-described test compound was added to each well, and it was then incubated for 5 hours. In order to obtain the measurement value of the test compound in each concentration, 5 wells on a 96-well plate were used with respect to each concentration. As a positive control of a compound having lipolysis suppressive activity, nicotinic acid was used with reference to a previous report [Green A et. al., J. Biol. Chem., 1992, 267(5), 3223-9].
40 μL of a culture supernatant was extracted from each well, and the fatty acid concentration in the supernatant was then measured. Such fatty acid concentration was measured as follows, using the above-described NEFA-C Test Wako. 80 μL of liquid A included in the kit was added to 40 μL of the culture supernatant extracted from each well, and the obtained mixture was then incubated at 37° C. for 10 minutes. Thereafter, 160 μL of liquid B was added, and the obtained mixture was further incubated at 37° C. for 10 minutes. Thereafter, the absorbance at a wavelength of 550 nm was measured. At the same time, a standard fatty acid solution included in the kit was diluted to prepare a dilution series having a volume of 40 μL. According to the same operations as described above, liquid A and liquid B were added, and the absorbance was then measured. In accordance with instructions included with the kit, a calibration curve was prepared. Based on the thus prepared calibration curve, the fatty acid concentration in the culture supernatant was calculated. The reduction percentage of the fatty acid concentration was calculated with the following formula, setting the reduction percentage obtained by addition of 100 μM (final concentration) of nicotinic acid at 100%. […]

In order of rising IC50:
1. O=C(CCc1nc(-c2ccc(O)cn2)no1)Nc1cn(Cc2cc(F)cc(F)c2)cc1C(=O)O [Example 15, 4-{3-[(5-Hydroxypyridin-2-yl)-1,2,4-oxadiazol-5-yl]propanoyl}amino-1-(3,5-difluorobenzyl)pyrrole-3-carboxylic acid]  2 nM
2. CCn1cc(NC(=O)CCc2onc(-c3ccc(O)cc3F)c2Cl)c(C(=O)O)c1 [Example 43, 4-{3-[4-Chloro-3-(4-hydroxy-2-fluorophenyl)isoxazol-5-yl]propanoyl}amino-1-ethylpyrrole-3-carboxylic acid]  7 nM
3. Cn1cc(NC(=O)CCc2nc(-c3ccc(O)cn3)no2)c(C(=O)O)c1 [Example 3, 4-{3-[(5-Hydroxypyridin-2-yl)-1,2,4-oxadiazol-5-yl]propanoyl}amino-1-methylpyrrole-3-carboxylic acid]  7 nM
4. CCc1c(-c2ccc(O)cc2)noc1CCC(=O)Nc1cn(CC)cc1C(=O)O [Example 35, 4-{3-[4-Ethyl-(4-hydroxyphenyl)isoxazol-5-yl]propanoyl}amino-1-ethylpyrrole-3-carboxylic acid]  8 nM
5. COCCCn1cc(NC(=O)CCc2cnc(-c3ccc(O)cc3)s2)c(C(=O)O)c1 [Example 18, 4-{3-[2-(4-Hydroxyphenyl)thiazol-5-yl]propanoyl}amino-1-(3-methoxypropyl)pyrrole-3-carboxylic acid]  9 nM
6. CCn1cc(NC(=O)C(F)Cc2cnn(-c3ccccc3)c2C)c(C(=O)O)c1 (stereo not shown) [Example 26, 4-[2-Fluoro-3-(5-methyl-1-phenylpyrazol-5-yl)propanoyl]amino-1-ethylpyrrole-3-carboxylic acid]  10 nM
7. CCn1cc(NC(=O)CCc2nnc(-c3ccc(O)cc3)s2)c(C(=O)O)c1 [Example 55, 4-{3-[5-(4-Hydroxyphenyl)[1,3,4]thiadiazole-2-yl]propanoyl}amino-1-ethylpyrrole-3-carboxylic acid]  10 nM
8. CCn1cc(NC(=O)C(F)(F)Cc2cc(-c3ccc(O)cc3)no2)c(C(=O)O)c1 [Example 63, 4-{3-[3-(4-Hydroxyphenyl)isoxazol-5-yl]-2,2-difluoropropanoyl}amino-1-ethylpyrrole-3-carboxylic acid]  13 nM
9. CCc1c(-c2ccccc2)ncn1CCC(=O)Nc1cn(CC)cc1C(=O)O [Example 28, 4-{3-(4-Phenyl-5-ethylimidazol-1-yl)propanoyl}amino-1-ethylpyrrole-3-carboxylic acid]  19 nM
10. CCCn1cc(NC(=O)CCc2cc(-c3ccc(O)cc3)no2)c(C(=O)O)c1 [Example 61, 4-{3-[3-(4-Hydroxyphenyl)isoxazol-5-yl]propanoyl}amino-1-propylpyrrole-3-carboxylic acid]  22 nM
11. CCn1cc(NC(=O)C(F)Cc2cc(-c3ccc(O)cc3)no2)c(C(=O)O)c1 (stereo not shown) [Example 62, 4-{3-[3-(4-Hydroxyphenyl)isoxazol-5-yl]-2-fluoropropanoyl}amino-1-ethylpyrrole-3-carboxylic acid]  28 nM
12. CCn1cc(NC(=O)CCc2nc(-c3ccc(O)cc3)no2)c(C(=O)O)c1 [Example 12, 4-{3-[3-(4-Hydroxyphenyl)-1,2,4-oxadiazol-5-yl]propanoyl}amino-1-ethylpyrrole-3-carboxylic acid]  29 nM
13. CCn1cc(NC(=O)C(F)Cc2cnc(-c3ccc(O)cc3)s2)c(C(=O)O)c1 (racemic) [Example 22, 4-{3-[2-(4-Hydroxyphenyl)thiazol-5-yl]-2-fluoropropanoyl}amino-1-ethylpyrrole-3-carboxylic acid]  29 nM
14. CCc1c(CC(F)C(=O)Nc2cn(CC)cc2C(=O)O)cnn1-c1ccccc1 (stereo not shown) [Example 27]  36 nM
15. CCn1cc(NC(=O)CCc2cnc(-c3ccc(O)cc3)s2)c(C(=O)O)c1 [Example 13, 4-{3-[2-(4-Hydroxyphenyl)thiazol-5-yl]propanoyl}amino-1-ethylpyrrole-3-carboxylic acid]  40 nM
16. CCn1cc(NC(=O)CCc2cnn(-c3ccccc3)c2C2CC2)c(C(=O)O)c1 [Example 29]  42 nM
17. CCCCn1cc(C(=O)O)c(NC(=O)CCc2nc(-c3ccc(O)cn3)no2)n1 [Example 17, 5-{3-[(5-Hydroxypyridin-2-yl)-1,2,4-oxadiazol-5-yl]propanoyl}amino-2-butylpyrazol-4-carboxylic acid]  49 nM
18. CCc1c(-c2ccc(O)cc2)nsc1CCC(=O)Nc1cn(CC)cc1C(=O)O [Example 58, 4-{3-[4-Ethyl-3-(4-hydroxyphenyl)isothiazol-5-yl]propanoylamino}-1-ethylpyrrole-3-carboxylic acid]  72 nM
19. CCCCn1cc(NC(=O)CCc2cnc(-c3ccc(O)cn3)o2)c(C(=O)O)c1 [Example 11, 4-{3-[2-(5-Hydroxypyridin-2-yl)oxazol-5-yl]propanoyl}amino-1-butylpyrrole-3-carboxylic acid]  88 nM
20. O=C(CCc1nc(-c2ccc(O)cc2)no1)Nc1cn(Cc2ccccc2)cc1C(=O)O [Example 49, 4-{3-[3-(4-Hydroxyphenyl)-1,2,4-oxadiazol-5-yl]propanoyl}amino-1-benzylpyrrole-3-carboxylic acid]  135 nM
21. CCn1cc(NC(=O)C(C)Cc2cnc(-c3ccc(O)cc3)s2)c(C(=O)O)c1 (stereo not shown) [Example 54, 4-{3-[2-(4-Hydroxyphenyl)thiazol-5-yl]-2-methylpropanoyl}amino-1-ethylpyrrole-3-carboxylic acid]  228 nM
22. O=C(CCc1cnc(-c2ccccc2)s1)Nc1cn(CCF)cc1C(=O)O [Example 14, 4-[3-(2-Phenylthiazol-5-yl)propanoyl]amino-1-(2-fluoroethyl)pyrrole-3-carboxylic acid]  255 nM
23. Cn1cc(NC(=O)CCc2ccc3c(Cl)c(O)ccc3c2)c(C(=O)O)c1 [Example 2, 4-[3-(5-Chloro-6-hydroxy-2-naphthyl)propanoyl]amino-1-methylpyrrole-3-carboxylic acid]  535 nM
24. Cn1cc(NC(=O)CCc2cnc(-c3ccccc3)s2)c(C(=O)O)c1 [Example 5, 4-{3-(2-Phenylthiazol-5-yl)propanoyl}amino-1-methylpyrrole-3-carboxylic acid]  663 nM
25. CCCCn1cc(NC(=O)CCc2nc(-c3ccc(O)cc3)no2)c(C(=O)O)c1Cl [Example 52, 4-{3-[3-(4-Hydroxyphenyl)-1,2,4-oxadiazol-5-yl]propanoyl}amino-2-chloro-1-butylpyrrole-3-carboxylic acid]  771 nM
26. CCCCn1cc(NC(=O)CCc2nc(-c3ccc(O)cc3)no2)c(C(=O)O)c1C [Example 50, 4-{3-[3-(4-Hydroxyphenyl)-1,2,4-oxadiazol-5-yl]propanoyl}amino-1-butyl-2-methylpyrrole-3-carboxylic acid]  823 nM
27. Cn1cc(NC(=O)CCc2ccc(-c3ccc(O)cc3)cc2)c(C(=O)O)c1 [Example 1, 4-{3-[4-(4-Hydroxyphenyl)phenyl]propanoyl}amino-1-methylpyrrole-3-carboxylic acid]  1100 nM

Same assay, conditions: test compound concentration giving 50% fatty acid concentration reduction percentage in culture supernatant; 1 μM isoproterenol, 5 hours incubation; reduction by 100 μM nicotinic acid set at 100%

Compound `CCn1cc(NC(=O)C(F)Cc2cnc(-c3ccc(O)cc3)s2)c(C(=O)O)c1` (single isomer, unassigned; (-)) [Example 23a, (−)-4-{3-[2-(4-Hydroxyphenyl)thiazol-5-yl]-2-fluoropropanoyl}amino-1-ethylpyrrole-3-carboxylic acid] has an IC50 of 15 nM.
